Source: patent US10407431B2, “Compounds and compositions as toll-like receptor 7 agonists” (NOVARTIS AG, priority 2014, dated 2019)

target: human TLR7 (Homo sapiens (Human), UniProt Q9NYK1); test: Reporter Gene Assay (HEK293 stably transfected with human TLR7 and NF-kB-driven luciferase reporter); assay type: cell-based; settings: HEK293 cells stably transfected with human TLR7 and pNifty-Luciferase; 7 hours incubation; EC50 relative to the activity of resiquimod set to 100%
Protocol: As a control assay, normal Hek293 transfected with pNifty-Luc were used. […] Bright-Glo™ Luciferase assay buffer and substrate were supplied by Promega #E263B and #E264B (assay substrate and buffer respectively). 384 well clear-bottom plates were supplied by Greiner bio-one (#789163-G) and were custom bar-coded plates.
Cells were plated at 25,000 cells/well in 384-well plates in a final volume of 50 μl of media. Cells were allowed to adhere to the plates after overnight (18 hours) culture at 37° C. and 5% CO2. Serially diluted experimental and positive control compounds were then dispensed to each well and incubated for 7 hours at 37° C. and 5% CO2. Cells stimulated with DMSO alone also serve as negative controls. After the incubation, 30 μl of the pre-mix assay buffer and substrate buffer were added to each well according to manufacturer's instructions. The luminescence signal was read on a CLIPR machine with an integration time of 20 seconds per plate.

Sequence of human TLR7 (Q9NYK1 27-1049): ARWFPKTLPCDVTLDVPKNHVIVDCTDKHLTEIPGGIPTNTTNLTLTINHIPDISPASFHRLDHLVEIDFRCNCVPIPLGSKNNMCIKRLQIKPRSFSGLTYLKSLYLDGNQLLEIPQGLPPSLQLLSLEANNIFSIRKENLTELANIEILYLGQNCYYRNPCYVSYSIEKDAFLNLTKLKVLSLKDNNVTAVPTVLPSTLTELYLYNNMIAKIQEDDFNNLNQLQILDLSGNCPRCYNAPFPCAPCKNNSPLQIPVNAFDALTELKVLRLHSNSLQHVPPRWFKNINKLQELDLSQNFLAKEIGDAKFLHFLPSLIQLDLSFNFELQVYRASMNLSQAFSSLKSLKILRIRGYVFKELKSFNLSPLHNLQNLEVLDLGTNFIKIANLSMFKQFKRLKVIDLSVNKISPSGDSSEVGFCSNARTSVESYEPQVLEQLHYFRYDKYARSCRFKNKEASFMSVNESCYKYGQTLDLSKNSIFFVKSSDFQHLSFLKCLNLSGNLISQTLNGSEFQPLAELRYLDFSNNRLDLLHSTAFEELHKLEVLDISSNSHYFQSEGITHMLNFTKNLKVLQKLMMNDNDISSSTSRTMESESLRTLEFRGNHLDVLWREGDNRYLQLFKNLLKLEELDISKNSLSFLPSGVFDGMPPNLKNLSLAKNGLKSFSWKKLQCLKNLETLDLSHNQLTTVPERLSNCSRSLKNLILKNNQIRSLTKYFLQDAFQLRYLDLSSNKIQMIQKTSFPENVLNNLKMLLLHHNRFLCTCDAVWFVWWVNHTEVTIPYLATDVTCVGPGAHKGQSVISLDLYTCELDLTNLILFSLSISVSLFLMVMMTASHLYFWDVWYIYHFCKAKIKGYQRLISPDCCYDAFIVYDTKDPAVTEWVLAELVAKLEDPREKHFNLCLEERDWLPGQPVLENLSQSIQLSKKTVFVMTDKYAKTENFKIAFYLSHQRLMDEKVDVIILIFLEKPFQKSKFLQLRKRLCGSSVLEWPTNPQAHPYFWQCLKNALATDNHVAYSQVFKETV

**Q.** With CCCCCNc1nc(N)nc2ccn(Cc3ccc(C(=O)OC)cc3OC)c12 [Example 1, methyl 4-((2-amino-4-(pentylamino)-5H-pyrrolo[3,2-d]pyrimidin-5-yl)methyl)-3-methoxybenzoate] as the compound, how does the EC50 read?
**A.** 0.01 µM

**Q.** Which EC50 does the source give for CCCCCNc1nc(N)nc2ccn(Cc3ccc(C(=O)OCCN(C)C)cc3OC)c12 [Example 2, 2-(dimethylamino)ethyl 4-((2-amino-4-(pentylamino)-5H-pyrrolo[3,2-d]pyrimidin-5-yl)methyl)-3-methoxybenzoate] here?
**A.** < 0.005 µM

**Q.** CCCCCNc1nc(N)nc2ccn(Cc3ccc(C(=O)OCCOCCN(C)C)cc3OC)c12 [Example 3, 2-(2-(dimethylamino)ethoxy)ethyl 4-((2-amino-4-(pentylamino)-5H-pyrrolo[3,2-d]pyrimidin-5-yl)methyl)-3-methoxybenzoate] was tested. Which EC50 did it give?
**A.** 0.02 µM

**Q.** CCCCCNc1nc(N)nc2ccn(Cc3cc(C(=O)OC)ccc3OC)c12 [Example 4, methyl 3-((2-amino-4-(pentylamino)-5H-pyrrolo[3,2-d]pyrimidin-5-yl)methyl)-4-methoxybenzoate] was tested. Which EC50 did it give?
**A.** < 0.005 µM

**Q.** With CCCCCNc1nc(N)nc2ccn(Cc3cc(CC(=O)OC)ccc3OC)c12 [Example 5, methyl 2-(3-((2-amino-4-(pentylamino)-5H-pyrrolo[3,2-d]pyrimidin-5-yl)methyl)-4-methoxyphenyl)acetate] as the compound, how does the EC50 read?
**A.** 0.01 µM

**Q.** How did the EC50 turn out when CCCCCNc1nc(N)nc2ccn(Cc3cc(CCC(=O)OCC)ccc3OC)c12 [Example 6, ethyl 3-(3-((2-amino-4-(pentylamino)-5H-pyrrolo[3,2-d]pyrimidin-5-yl)methyl)-4-methoxyphenyl)propanoate] was run?
**A.** 0.03 µM

**Q.** CCCCCNc1nc(N)nc2ccn(Cc3cc(OCC(=O)OCC(=O)N4CCOCC4)ccc3OC)c12 [Example 8, 2-morpholino-2-oxoethyl 2-(3-((2-amino-4-(pentylamino)-5H-pyrrolo[3,2-d]pyrimidin-5-yl)methyl)-4-methoxyphenoxy)acetate] was tested. Which EC50 did it give?
**A.** 0.04 µM

**Q.** Which EC50 does the source give for CCCCCNc1nc(N)nc2ccn(Cc3cc(CC(=O)OCC(=O)N4CCOCC4)ccc3OC)c12 [Example 9, 2-morpholino-2-oxoethyl 2-(3-((2-amino-4-(pentylamino)-5H-pyrrolo[3,2-d]pyrimidin-5-yl)methyl)-4-methoxyphenyl)acetate] here?
**A.** 0.01 µM

**Q.** For CCCCCNc1nc(N)nc2ccn(Cc3ccc(CC(=O)OCC(=O)N4CCOCC4)cc3OC)c12 [Example 10, 2-morpholino-2-oxoethyl 2-(4-((2-amino-4-(pentylamino)-5H-pyrrolo[3,2-d]pyrimidin-5-yl)methyl)-3-methoxyphenyl)acetate], which EC50 is on record?
**A.** 0.006 µM

**Q.** CCCCCNc1nc(N)nc2ccn(Cc3ccc(CCC(=O)OCC(=O)N4CCOCC4)cc3OC)c12 [Example 11, 2-(morpholin-4-yl)-2-oxoethyl 3-(4-{[2-amino-4-(pentylamino)-5H-pyrrolo[3,2-d]pyrimidin-5-yl]methyl}-3-methoxyphenyl)propanoate] was tested. Which EC50 did it give?
**A.** 0.02 µM

**Q.** How did the EC50 turn out when CCCC[C@@H](CO)Nc1nc(N)nc2ccn(Cc3cc(CCC(=O)OCC(=O)N4CCOCC4)ccc3OC)c12 [Example 12, (S)-2-morpholino-2-oxoethyl 3-(3-((2-amino-4-((1-hydroxyhexan-2-yl)amino)-5H-pyrrolo[3,2-d]pyrimidin-5-yl)methyl)-4-methoxyphenyl)propanoate] was run?
**A.** 0.03 µM

**Q.** How did the EC50 turn out when CCCC[C@@H](CO)Nc1nc(N)nc2ccn(Cc3ccc(CC(=O)OCC(=O)N4CCOCC4)cc3OC)c12 [Example 13, (S)-2-morpholino-2-oxoethyl 2-(4-((2-amino-4-((1-hydroxyhexan-2-yl)amino)-5H-pyrrolo[3,2-d]pyrimidin-5-yl)methyl)-3-methoxyphenyl)acetate] was run?
**A.** 0.01 µM

**Q.** How did the EC50 turn out when CCCC[C@@H](CO)Nc1nc(N)nc2ccn(Cc3cc(CC(=O)OCC(=O)N4CCOCC4)ccc3OC)c12 [Example 14, (S)-2-morpholino-2-oxoethyl 2-(3-((2-amino-4-((1-hydroxyhexan-2-yl)amino)-5H-pyrrolo[3,2-d]pyrimidin-5-yl)methyl)-4-methoxyphenyl)acetate] was run?
**A.** 0.01 µM
